Source: US20170224764A1, “THERAPEUTIC TARGETING OF MITOCHONDRIA TO PREVENT OSTEOARTHRITIS” (Cornell University, priority 2016, published 2017)
Entries after “also recorded” stand apart in the source; their conditions may differ.

Tests used:
Assay type in all cases: cell-based, bovids
[1] = tested on: chondrocytes in cartilage explants; experiment: Chondrocyte viability, live/dead staining (calcein AM / ethidium homodimer) of impacted cartilage explants, confocal microscopy; details: 1 μM
Procedure: (§1) Cartilage was harvested from the knee joints of 4 neonatal bovids (n=30 explants). Cartilage explants were subjected to unconfined compression (24.0±1.4 MPa peak stress; 53.8±5.3 GPa/s peak stress rate) using a validated single-impact subcritical damage model.
(§2) Cartilage explants were treated with 1 μM D-Arg-Dmt-Lys-Phe-NH2 (SS-31) immediately after injury (T0), one hour following injury (T1), or 6 hours after injury (T6), and then cultured for 7 days. Cartilage conditioned media (CCM) was sampled at T0, T1, T6, and every 24 hours after injury (T24-168) for 7 days.
(§3) Explants were stained with calcein AM and ethidium homodimer (for live and dead cells, respectively) to assess chondrocyte viability at T24 and T168 using confocal microscopy. Live, dead and total cell numbers were quantified in z-stacked digital images using a custom ImageJ macro. To quantify cell membrane damage, CCM was analyzed using a colorimetric lactate dehydrogenase (LDH) activity assay, and cumulative cell membrane damage over the 7-day incubation period was determined for each explant.
(§4) Tissue harvest. Full thickness cartilage explants were harvested from the knee joints of healthy bovids (n=8 animals, 1-3 days of age) within 48 hours of sacrifice using an 8 mm biopsy punch. Specimens were rinsed in phosphate-buffered saline (PBS), trimmed to a uniform thickness of 3 mm from the articular surface using a custom jig, and placed in cartilage explant media (phenol free DMEM containing 1% FBS, HEPES 0.025 ml/ml, penicillin 100 U/mL, streptomycin 100 U/mL and 0.1 g/L glucose).
(§5) Rapid impact injury model. Explants were subjected to injury using rapid-impact model or served as unimpacted controls (as described in Example 3). Briefly, explants were positioned in a well containing PBS under the plane-ended tip of a spring-loaded impacting device. The impactor was used to deliver a single, rapid cycle of unconfined axial compression (24.0±1.4 MPa peak stress; 53.8±5.3 GPa/s peak stress rate). Impact force was measured at 50 kHz by a load cell (PCBPiezotronics, Depew, N.Y.) attached to the impactor tip. Voltage from the load cell was recorded with a custom LabVIEW program (NI, Austin Tex.). The impact magnitude was adjusted by setting the deflection of the impactor's internal spring and mechanical parameters for each impact were calculated (as described in Example 3).
D-Arg-2′,6′-Dmt-Lys-Phe-NH2 (SS-31) treatment. Following injury, explants were cut perpendicular to the articular surface into 2 hemicylinders using a custom cutting jig to ensure uniform geometry. Cartilage was kept moist at all times and each cut was performed with a fresh (unused) and lubricated cutting instrument. Handling of the experimental tissues was strictly minimized at each step. Explants were placed directly into an individual well of a 24-well untreated tissue culture plate containing a known volume (1.5 ml) of cartilage explant media. Cartilage hemicylinders were randomly assigned to one of 10 treatment groups (n=6/group, FIG. 22). Injured (I) and uninjured control (C) explants in the non-treated groups (ITno, CTno) were placed into wells containing only media. Explants in the time zero treatment groups (IT0, CT0) were placed directly into media containing 1 μM D-Arg-2′,6′-Dmt-Lys-Phe-NH2(SS-31). Explants in the one-hour treatment groups (IT1, CT1) were placed into media only and D-Arg-2′,6′-Dmt-Lys-Phe-NH2(1 μM) was added to the wells 1 hour after impact. Explants in the six-hour treatment groups (IT6, CT6) were placed into media only and D-Arg-2′,6′-Dmt-Lys-Phe-NH2 (1 μM) was added 6 hours after impact. Explants in the twelve-hour treatment groups (IT12, CT12) were placed into media only and D-Arg-2′,6′-Dmt-Lys-Phe-NH2 (1 μM) was added 12 hours after impact. Explants were maintained under standard tissue culture conditions (36° C. and 21% O2) for 7 days. Medium was sampled at 1, 6, and 12 hours, and at 3, 5, and 7 days after impact, and stored at −80° C. until biochemical assays were performed. […]

[2] = tested on: cartilage explants; experiment: Cell membrane damage, lactate dehydrogenase (LDH) activity assay on cartilage conditioned media; details: 1 μM
Procedure: as §1, §2, §3, §4
Rapid impact injury model. Explants were subjected to injury using rapid-impact model or served as unimpacted controls (as described in Example 3). […] Impact force was measured at 50 kHz by a load cell (PCBPiezotronics, Depew, N.Y.) attached to the impactor tip. Voltage from the load cell was recorded with a custom LabVIEW program (NI, Austin Tex.). The impact magnitude was adjusted by setting the deflection of the impactor's internal spring and mechanical parameters for each impact were calculated (as described in Example 3). […]

[3] = tested on: chondrocytes in cartilage explants; experiment: Apoptosis, activated caspase 3/7 staining of impacted cartilage explants; details: Example 6, 1 μM
Procedure: as §4, §5
D-Arg-2′,6′-Dmt-Lys-Phe-NH2 (SS-31) treatment. […]

[4] = tested on: cartilage explants; experiment: Cartilage matrix degradation, GAG loss into the media by DMMB assay; details: 1 μM
Procedure: as §1
[…] Cartilage conditioned media (CCM) was sampled at T0, T1, T6, and every 24 hours after injury (T24-168) for 7 days.
Cartilage matrix degradation was quantified by measuring GAG loss into the media via DMMB assay.
as §4, §5
D-Arg-2′,6′-Dmt-Lys-Phe-NH2 (SS-31) treatment. […] Cartilage was kept moist at all times and each cut was performed with a fresh (unused) and lubricated cutting instrument. Handling of the experimental tissues was strictly minimized at each step. Explants were placed directly into an individual well of a 24-well untreated tissue culture plate containing a known volume (1.5 ml) of cartilage explant media. Cartilage hemicylinders were randomly assigned to one of 10 treatment groups (n=6/group, FIG. 22). Injured (I) and uninjured control (C) explants in the non-treated groups (ITno, CTno) were placed into wells containing only media. […]
Cartilage GAG loss. To determine if D-Arg-2′,6′-Dmt-Lys-Phe-NH2 could provide structural protection after impact injury, the loss of glycosaminoglycan (GAG) was determined by routine 1,9-dimethyl-methylene blue dye binding (DMMB) assay. […] Total GAG content was read […], and expressed as the total GAG released into cartilage conditioned media over the culture period per μg dry weight of cartilage. […]

D-Arg-2′,6′-Dmt-Lys-Phe-NH2
chondrocyte death at 24 hours ([1]; Example 2, treatment at 0, 1 or 6 hours after impact, versus untreated impacted cartilage): significantly reduced | chondrocyte viability / death in injury+treatment groups compared with un-injured controls ([1]; Example 6, day 1, treatment at 0, 1 or 6 hours): equivalent to uninjured controls | reduction in impact-induced chondrocyte death, treated versus untreated explants ([1]; Example 6, day 1, treatment at 0, 1 or 6 hours after impact): over 50% | cell death at 1 day post-injury ([1]; Example 6, injured groups treated at 0, 1 or 6 hours (IT0, IT1, IT6) versus untreated injured): potently reduced cell death; also recorded: effective at preventing chondrocyte death | effect of treatment time on cell death ([1]; Example 6, injury groups treated at 0, 1 or 6 hours, p=0.93): no effect of treatment time | chondrocyte death (% dead cells) compared with untreated, injured controls ([1]; Example 6, treatment at 0, 1, 6 or 12 hours after impact): reduced chondrocyte death; also recorded: reduced as compared to untreated, injured controls | impact-induced cell death on day 7 ([1]; Example 6, treatment immediately, at 1 hour or at 6 hours after impact): prevented impact-induced cell death to a similar degree; also recorded: effective at preventing chondrocyte death | cumulative cell membrane damage (LDH activity) over the 7 days following injury ([2]; Example 2, treated versus untreated impacted cartilage): prevents cell membrane damage; also recorded: lower in treated than untreated cartilage | cumulative cell membrane damage, LDH activity in cartilage conditioned media over the 7 days following injury ([2]; Example 6, injured, treated versus injured, untreated cartilage, p=0.0005): approximately twofold lower; also recorded: lower than injured, untreated explants | cumulative LDH in uninjured controls ([2]; Example 6, uninjured, treated versus untreated controls, p=0.05): lower cumulative LDH than untreated controls; also recorded: protective effect against cell membrane damage | impact-induced apoptosis (caspase 3/7 positive cells) at 1 day ([3]; 1 day after cartilage injury, p=0.007): prevented impact-induced apoptosis; also recorded: equivalent to uninjured controls | impact-induced apoptosis (caspase 3/7 positive cells) at 7 days ([3]; 7 days after cartilage injury, p=0.04): prevented impact-induced apoptosis; also recorded: equivalent to uninjured controls | impact-induced GAG loss into the media ([4]; Example 2, treatment at 0, 1 or 6 hours after impact, 96 hr post impact): decreased GAG loss | decrease of impact-induced GAG loss ([4]; Example 6, cumulative GAG loss, p=0.002): ~30% | cartilage matrix degeneration (GAG loss into the media) compared with uninjured controls ([4]; Example 6, treatment at 0, 1 or 6 hours after impact): equivalent to uninjured controls | cartilage matrix degeneration (GAG loss into the media) compared with untreated, injured controls ([4]; Example 6, treatment at 12 hours after impact): reduced cartilage matrix degeneration
